This note sets out measurements from EP0004358A1, “N-oxacyclylalkyl piperidines, process for their preparation, pharmaceutical compositions containing these compounds” (priority 1978, dated 1979).

The structures appear in SMILES notation. Where a name gives a salt, the structure may show the parent alone.

For series [1], the system named is männlichen Albinoratten. Nature of the series: Conditioned shock avoidance (lever pressing) in rats. The note with it: for Schockvermeidungsreaktion der Ratte: doses down to 2,5 mg/kg/Tag. Type of series: in vivo, Ratte. From the text: Die Verbindungen der Erfindung zeigen wertvolle pharmakologische, z.B. stimulierende und antidepressive Wirkungen. Diese können in Tierversuchen, vorzugsweise an Säugetieren, wie Ratten oder Affen, als Testobjekte nachgewiesen werden. Die Verbindungen der Erfindung können ihnen enteral, z.B. oral, oder parenteral, z.B. subkutan, intraperitoneal oder intravenös, z.B. in Form von wässerigen Lösungen oder Stärke enthaltenden Suspensionen, verabreicht werden. Die verwendete Dosis kann in einem Bereich von ungefähr zwischen 0,1 und 100 mg/kg/Tag, vorzugsweise ungefähr 1 und 50 mg/kg/Tag, insbesondere ungefähr 5 und 25 mg/kg/Tag liegen. Die genannten stimulierenden und antidepressiven Wirkungen können z.B. an männlichen Albinoratten beobachtet werden. Die Tiere haben freien Zugang zu Futter und Wasser, mit Ausnahme der Versuchsdauer. Die Untersuchung des Tierverhaltens wird in normierten, schallisolierten Konditionierungskammern, welche einen Schalthebel enthalten, durchgeführt. Gemäss dem Test werden die Ratten durch das Bodengitter der Kammer elektrischen Schocks ausgesetzt. Der Hebel ist an eine programmierte Einrichtung, welche die Abgabe von elektrischen Schocks reguliert, angeschlossen. Die Anzahl der Betätigung des Hebels und die Anzahl der erlittenen Schocks werden registriert. Die Ratten werden vorher dazu trainiert, diesem elektrischen Impuls durch Drücken der Taste auszuweichen. Dann wird der Apparat so eingestellt, dass jede Hebelbetätigung den Schockeintritt um 30 Sekunden verschiebt. Vergisst das Tier den Hebel innerhalb dieses Zeitintervalls zu drücken, so werden alle 15 Sekunden kurze elektrische Schocks abgegeben, bis das Tier den Hebel wieder betätigt. Vor jeder Testperiode werden die Ratten, um sich zu erwärmen, 15 Minuten in den Testkammern gehalten. Während dieser Zeit wird die Anzahl der Hebelbetätigungen nicht registriert. Unmittelbar nach dieser Periode werden die Test-Verbindungen entweder in Kochsalzlösung oder in 3Xiger Maisstärke-Suspension in 5%igem wässerigem Polyäthylenglykol-400, welches auf 10 ml einen Tropfen Polyäthylen-20- sorbitanmonooleat enthält, entweder oral oder intraperitoneal vorabreicht. […] Diese erfindungsgemässe Verbindung zeigt einen einzigartigen Wirkungsmechanismus.

For series [2], the system named is Totenkopf-Aeffchen (squirrel monkeys). Briefly: Conditioned shock avoidance (Skinner cage) in squirrel monkeys. It counts as in vivo. The note with it: oral in 0,9%iger wässeriger Kochsalzlösung, doses down to 2,5 mg/kg/Tag; four-hour session. From the text: In einem anderen Test werden Totenkopf-Aeffchen (squirrel monkeys) durch Training dazugebracht, den Hebel in einem solchen Skinner-Käfig zu drücken, um dem elektrischen Schock, der auf die Füsse durch das Bodengitter verabreicht wird, auszuweichen. Jeder Tastendruck verschiebt den elektrischen Schock um 20 Sekunden. Versäumt der Affe innerhalb von 20 Sekunden die Taste zu drücken, so wird er kurze (0,5 Sekunden) elektrische Schocks alle 20 Sekunden bis zu seinem nächsten Tastendruck erleiden. Unter Kontrollbedingungen drücken die Affen den Hebel mit einer verhältnismässig stetigen Geschwindigkeit, so dass sie selten mehr als 6 Schocks während einer vierstündigen Versuchsperiode erhalten. Man bestimmt die Anzahl der Vermeidungsreaktionen sowie die Anzahl der erhaltenen Schocks. […] Der Wirkstoff wird in niedrigen Dosen bis hinunter zu 2,5 mg/kg/Tag verabreicht. Die Untersuchung zwecks Gewinnung von Kontrollwerten wird unter Verwendung von Kochsalzlösung allein, ein Tag vor der Untersuchung der Wirkstoffe, durchgeführt.

In series [3] the test system is biogener Amine. Briefly: Uptake inhibition of biogenic amines (statement, no method).
Series [4] relates to anticholinergische. Briefly: Anticholinergic action (statement, no method).
For series [5], the system named is präsynaptischerc(-noradrenergischer Blocker). Briefly: Presynaptic alpha-noradrenergic blockade (statement, no method). The note with it: compared in kind with Mianserin.
Series [6] relates to antihistaminische. Nature of the series: Antihistaminic action (statement, no method).

As to `COC(=O)C(c1ccccc1)C1CCCCN1` (stereo not shown) [Methylphenidat, reference compound], in series [1] (5 mg/kg/Tag, intraperitoneal), the “Zunahme der Schockvermeidungsreaktion” value is recorded as “Zunahme der Schockvermeidungsreaktion”.
`O=C1NCCN1C1CCN(CC[C@H]2COc3ccccc3O2)CC1` [1-(S)-Hydrobromid]: the “Schockvermeidungsreaktion der Ratte” value in series [1] (intraperitoneal) is on record as “erhöht signifikant”. Besides, in series [2], the “Anzahl der erlittenen Schocks” value is given as “positive Aenderungen” and the “Ausmass der Vermeidungsreaktionen” value is “positive Aenderungen”.
With `O=C1NCCN1C1CCN(CCC2COc3ccccc3O2)CC1` (racemic) [1-[1-[2-(1,4-Benzodioxan-2-yl)-äthyl]-4-piperidyl]-2-imidazolidinon], the “Zunahme der Schockvermeidungsreaktion, comparison with Methylphenidat” value in series [1] (compared with 5 mg/kg/Tag Methylphenidat intraperitoneal) was “vorteilhaft”. The “Schockvermeidungsreaktion der Ratte” value in series [1] (intraperitoneal) is reported as “erhöht signifikant”. Moreover, the “Aufnahmehemmer biogener Amine” value in series [3] is on record as “kein Aufnahmehemmer biogener Amine”. In addition, in series [4], the “anticholinergische Wirkung” value was “weder eine anticholinergische”. Moreover, the “präsynaptischerc(-noradrenergischer Blocker)” value in series [5] is given as “kein präsynaptischerc(-noradrenergischer Blocker”. Also, the “antihistaminische Wirkung” value in series [6] is recorded as “noch eine antihistaminische Wirkung”.
